Test results taken from patent US10537552B2, “Substituted 5-hydroxyoxindoles and their use as analgesics and fever reducers” (CARAFE DRUG INNOVATION, LLC, priority 2015, dated 2020).
Where “and” joins values, the source holds several entries; their conditions need not be identical. Identical values can stand only once.

Tests used:
[1] = tested on: acetic acid-induced writhing responses; assay: acetic acid writhing test (abdominal irritant test), Example 10; format: in vivo, C57/B16 mice
Method: This example compares the antinociception (animal equivalent of analgesia) produced by the oral administration of 5-hydroxy-7-methyloxindole vs. acetaminophen. Initial studies were performed using 10% DMSO/Cremophor™ as the vehicle. To enable a comparison with other datasets, 5-hydroxy-7-methyloxindole was subsequently tested using 6% Tween 20® reagent as the vehicle.
Male C57/B16 mice (Taconic), 8 weeks of age, were used in this study. The mice were received at Drexel University at least one week prior to testing and housed in standard polycarbonate cages with filter tops. Experiments were done in accordance with the guidelines of the National Institutes of Health and with the guidelines of the Committee for Research and Ethical Issues of IASP and were approved by the Animal Care and Use Committee of Drexel University College of Medicine. Four to five animals were housed per cage and food and water were provided ad libitum. Prior to initiation of the study, the animals were examined to assure adequate health and suitability. Mice were maintained on a 12/12 light/dark cycle and room temperature was maintained between 20 and 23° C. with a relative humidity maintained between 30% and 70%.
Compounds were administered orally 10 mL/kg, with a 30 minute pretreatment time. All compounds were tested in naïve animals. […] Each compound was dissolved in DMSO as a stock solution and mixed with Cremophor™ (1:1 v/v) before testing. The mixed solutions were diluted 1:4 with sterile water (the final concentration of DMSO/Cremophor™ reagent was 10%) immediately before administration to maximize the amount of compound in solution and improve the uniformity of any compound substance remaining in suspension. It is possible that some of the drug was in suspension at the time of administration. Each compound was initially tested in 5 mice at a dose of 300 mg/kg in the writhing test to assess their ability to alleviate abdominal pain. Based on the results of the initial test, the dose-response relationship for each active compound was determined by measuring the level of analgesia produced by at least 3 escalating doses of the test compound. The measurement of inhibition of writhing for acetaminophen and 5-hydroxy-7-methyloxindole were repeated using 6% Tween® 20 reagent as the vehicle. In this case, both compounds were clearly in suspension when administered to the animals.
A modified version of the standard abdominal irritant test was used to assess analgesia. Mice were habituated for 1 h in a transparent test box (5×5×10 inches) before any injections. Vehicle or test compound was administered p.o. (per os) 30 min prior to an intraperitoneal (i.p.) injection of 0.6% acetic acid (10 mL/kg) and the number of writhing responses (stretching of the hind limbs accompanied by a contraction of the abdominal muscles) to the acetic acid injection were counted over the subsequent 30 min period. The mice from each cage were randomly assigned to the dosing groups and the mice from each group were injected in a random order.
The one-way ANOVA was used to determine significant difference from the vehicle control treated animal. Dose response data for 5-hydroxy-7-methyloxindole was fit by non-linear regression analysis to a logit model to provide an estimate of ED50.

[2] = tested on: liver (acute liver toxicity); assay: plasma aminotransferase activity (ALT, AST) after intragastric dosing; format: in vivo, C57BL/6 mice; settings: for AST / ALT: individual mice 1-8; for ALT, Mean / AST, Mean: mean of 8 mice; for hepatotoxicity, overall assessment (ALT, AST, pathohistology): mice, intragastric, summary statement
Method: This example was performed to determine if acute liver toxicity results from oral administration of 5-hydroxy-7-methyloxindole (CaRafe Drug Innovation, LLC) compared to the known acute liver toxicity produced by acetaminophen.
Acetaminophen was acquired from Sigma-Aldrich Corp. (St. Louis, Mo., USA); 5-hydroxy-7-methyloxindole was provided by CaRafe Drug Innovation, LLC (Norristown, Pa., USA) in the form of a powder. […] Based on the efficacy testing performed at Drexel University, 5-hydroxy-7-methyloxindole was suspended in 6% Tween® 20 reagent with vortexing. This procedure provided a crude suspension, but it precipitated after some time, therefore vortexing was repeated prior to each injection. Acetaminophen was prepared in the same vehicle (6% Tween® 20 reagent) using light magnetic stirring.
Ten-week old male C57BL/6 mice were used in all of the experiments. All protocols were approved before study initiation by the Ethics Committee of University of Zagreb School of Medicine (Zagreb, Croatia) and the study was conducted in accordance with accepted standards of humane animal care.
In all experiments, mice were fasted overnight and then allocated randomly to receive either acetaminophen or equimolar dose of 5-hydroxy-7-methyloxindole by the intragastric route. Food was returned 4 h after the treatment. The two experimental groups were:
(a) Lower-dose group: Mice were administered acetaminophen (300 mg/kg) or 5-hydroxy-7-methyloxindole (324 mg/kg). After 7 h, the mice were sacrificed and liver and blood samples were taken for the analysis.
Seven hours after receiving the second injection, mice were sacrificed and liver and blood samples were taken for analysis.
After collection, the blood samples were centrifuged, and plasma was separated and stored at −80° C. for 24 h. Activities of ALT (alanine transaminase) and of AST (aspartate transaminase) in plasma were determined using standard laboratory techniques in a clinical diagnostic laboratory.

[3] = 5-hydroxy-7-methyloxindole 324 mg/kg intragastric, 7 h

Cc1cc(O)cc2c1NC(=O)C2 [5-hydroxy-7-methyloxindole, 5-Hydroxy-7-methyloxindole]
inhibition of acetic acid-induced response (writhing) ([1]; C57/B16 mice, p.o. 30 min before i.p. 0.6% acetic acid, 10% DMSO/Cremophor vehicle, 30 to 300 mg/kg, FIG. 2, 3): robust and dose-related inhibition
inhibition of acetic acid-induced response (writhing) ([1]; C57/B16 mice, p.o., 6% Tween 20 vehicle (suspension), 100 and 300 mg/kg, FIG. 5, 6): the highest dose produced an effect comparable to that observed with the DMSO/Cremophor™ vehicle
ED50 ([1]; Mus musculus, po, C57/B16 mice, p.o., 10% DMSO/Cremophor vehicle, FIG. 4, read-out: ED50 (logit model fit of dose-response)): 76 mg/kg
oral antinociceptive (analgesic) effect compared with acetaminophen ([1]; mouse model, oral, summary statement): equal to, and was slightly more potent than, acetaminophen
ALT and AST levels, in words ([2]; higher-dose protocol: two cumulative injections 2.5 h apart, 7 h after second injection): normal or only minimally elevated levels of ALT and AST
AST ([2]; 5-hydroxy-7-methyloxindole 324 mg/kg intragastric, 7 h after treatment): 80 U/L (2×) and 60 U/L (2×) and 120 U/L and 330 U/L and 170 U/L and 90 U/L
ALT ([2]; 5-hydroxy-7-methyloxindole 324 mg/kg intragastric, 7 h after treatment, 6% Tween 20): 30 U/L (5×) and 20 U/L and 50 U/L (2×)
AST ([2]; 5-hydroxy-7-methyloxindole 540 mg/kg total (two 270 mg/kg) intragastric, 7 h after second injection): 60 (2×) and 120 (3×) and 100 and 70 and 110
ALT ([2]; 5-hydroxy-7-methyloxindole 540 mg/kg total (two 270 mg/kg, 2.5 h apart) intragastric, 7 h after second injection): 20 (3×) and 30 (3×) and 50 (2×)
ALT and AST levels / liver damage, in words ([2]; lower-dose protocol: acetaminophen 300 mg/kg or 5-hydroxy-7-methyloxindole 324 mg/kg, 7 h): normal or only minimally elevated
ALT, Mean [2, 3]: 34 U/L
AST, Mean [2, 3]: 124 U/L
AST, Mean ([2]; 5-hydroxy-7-methyloxindole 540 mg/kg total, 7 h after second injection): 95 U/L
ALT, Mean ([2]; 5-hydroxy-7-methyloxindole 540 mg/kg total, 7 h after second injection, in U/L): 31.25
hepatotoxicity, overall assessment (ALT, AST, pathohistology) ([2]; 6% Tween 20): devoid of hepatotoxic effect
hepatotoxicity, overall assessment (ALT, AST, pathohistology) ([2]; 6% Tween 20, listed as 5-Hydroxy-7-methyloxindole): significantly less hepatotoxicity than acetaminophen
